These results are taken from EP3860599B1, “(+)-ALPHA-DIHYDROTETRABENAZINE DOSAGE REGIMEN FOR TREATING MOVEMENT DISORDERS” (Adeptio Pharmaceuticals Limited, priority 2018, dated 2020).

Like-named read-outs stand apart in the source and are kept apart here.

The conditions of test [1]: cited from earlier work; for symptoms scored with the abnormal involuntary movement scale (AIMS): KINECT 1, tardive dyskinesia patients.
Test [2] has as its system non-amphetamine induced rats. The test can be described thus: Open field locomotor activity test in rats without amphetamine induction (Example 2, Study 3). Format: in vivo. The settings on record: 1 mg/kg. On the procedure:
(§1) All animal experiments were carried out according to the National Institute of Health (NIH) guidelines for the care and use of laboratory animals, and approved by the National Animal Experiment Board, Finland. Male CD (Charles River Laboratories, Germany) at weight range of 200-250 g (165-200 g upon arrival) were used for the experiments. Animals were housed at a standard temperature (22 ± 1°C) and in a light-controlled environment (lights on from 7 am to 8 pm) with ad libitum access to food and water.
(§2) Locomotor activity of the rats was tested in open field arena. The open field test was performed during the rat light cycle and under a normal lighting evenly distributed to the test chambers. The paths of the rats were recorded by activity monitor (Med. Associates Inc.).
(§3) Dosing the vehicle, vehicle-amphetamine, (+)-α-DHTBZ or risperidone was done prior to LMA test. The rats were placed in the centre of the arena, and the path was recorded for 60 minutes.
Animals were grouped as follows: • Group 1: 10 rats treated with Vehicle • Group 2: 10 rats treated with (+)-α-DHTBZ 2.5 mg/kg • Group 3: 10 rats treated with (+)-α-DHTBZ 5 mg/kg • Group 4: 10 rats treated with risperidone 1 mg/kg

For test [3], the system named is amphetamine-induced rats. Kind of test: Open field locomotor activity test in amphetamine-induced rats (Example 2, Studies 1, 2 and 4). Format: in vivo. The settings on record: 1 mg/kg. On the procedure: as §1, §2, §3
Animals were grouped as follows: • Group 1: 10 rats treated with Vehicle (t= 0 min) and Vehicle (t= 30 min) • Group 2: 10 rats treated with Vehicle (t= 0 min) and Amphetamine (t= 30 min) • Group 3: 10 rats treated with (+)-α-DHTBZ 0.5 mg/kg (t=0 min) and Amphetamine (t= 30 min) • Group 4: 10 rats treated with (+)-α-DHTBZ 1 mg/kg (t=0 min) and Amphetamine (t= 30 min) • Group 5: 10 rats treated with (+)-α-DHTBZ 1.5 mg/kg (t=0 min) and Amphetamine (t= 30 min) • Group 6: 10 rats treated with (+)-α-DHTBZ 2 mg/kg (t=0 min) and Amphetamine (t= 30 min) • Group 7: 10 rats treated with risperidone 1 mg/kg (t=0 min) and Amphetamine (t= 30 min)
Animals were grouped as follows: • Group 1: 10 rats treated with Vehicle (t= 0 min) and Vehicle (t= 30 min) • Group 2: 10 rats treated with Vehicle (t= 0 min) and Amphetamine (t= 30 min) • Group 3: 10 rats treated with (+)-α-DHTBZ 0.1 mg/kg (t=0 min) and Amphetamine (t=30 min) • Group 4: 10 rats treated with (+)-α-DHTBZ 0.25 mg/kg (t=0 min) and Amphetamine (t=30 min) • Group 5: 10 rats treated with risperidone 1 mg/kg (t=0 min) and Amphetamine (t= 30 min)
Animals were grouped as follows: • Group 1: 10 rats treated with Vehicle (t= 0 min) and Vehicle (t= 30 min) • Group 2: 10 rats treated with Vehicle (t= 0 min) and Amphetamine (t= 30 min) • Group 3: 10 rats treated with (+)-α-DHTBZ 1 mg/kg (t=0 min) and Amphetamine (t=30 min) • Group 4: 10 rats treated with (+)-α-DHTBZ 1.5 mg/kg (t=0 min) and Amphetamine (t=30 min) • Group 5: 10 rats treated with Valbenazine 1 mg/kg (t=0 min) and Amphetamine (t=30 min) • Group 6: 10 rats treated with Valbenazine 1.5 mg/kg (t=0 min) and Amphetamine (t=30 min) • Group 7: 10 rats treated with risperidone 1 mg/kg (t=0 min) and Amphetamine (t= 30 min)

On to `COc1cc2c(cc1OC)[C@H]1C[C@@H](OC(=O)[C@@H](N)C(C)C)[C@H](CC(C)C)CN1CC2` [Valbenazine, reference compound], for which the figures for the “symptoms scored with the abnormal involuntary movement scale (AIMS)” value in test [1] (50 mg/day) and in test [1] (100 mg/day) were “did not show any significant signs of improvement” and “some reduction of symptoms”, respectively. Also, the “Abnormal Involuntary Movement Score” value in test [1] (KINECT 3, Tardive Dyskinesia sufferers, 80mg/day) is given as “significant improvement”.
Turning to `Cc1nc2n(c(=O)c1CCN1CCC(c3noc4cc(F)ccc34)CC1)CCCC2` [risperidone, reference compound], in test [2], the total movement entry was “reduced total movement” and the total stereotypic behaviour result is reported as “reduced total stereotypic behaviour”. In test [3] (Study 1 conclusions), the “locomotor activity when compared to the vehicle-amphetamine group” value is given as “lower locomotor activity” and the “stereotypic behaviour when compared to the vehicle-amphetamine group” value is listed as “reduced stereotypic behaviour”. Besides, in test [3] (Study 2 conclusions), the “locomotor activity when compared to the vehicle-amphetamine group” value is reported as “lower locomotor activity” and the “stereotypic behaviour when compared to the vehicle-amphetamine group” value is reported as “reduced stereotypic behaviour”.
